# Where two headings read alike, the source gives them in different places.
# Experiments:
# [1] = target: FGFR3-BAIAP2L1 Ba/F3 cells (Homo sapiens, UniProt P22607); assay: Ba/F3 cell viability assay (CellTiter-Glo 2.0), FGFR3-BAIAP2L1 Ba/F3; assay type: cell-based
# Method in brief: (§1)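 IL3-independent Ba/F3 lines driven by FGFR1-BCR or FGFR3-BAIAP2L1 fusions, in RPMI1640/10% FBS. 9-dose 10-fold series from 30 μM, triplicate, 48 h at 37 °C; viability by CellTiter-Glo 2.0 ATP luminescence relative to DMSO control, IC50 from 4-parameter sigmoidal fit.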
# FGFR1-BCR Ba/F3 cells = FGFR1-BCR Ba/F3 cells (Homo sapiens, UniProt P11362); assay: Ba/F3 cell viability assay (CellTiter-Glo 2.0), FGFR1-BCR Ba/F3; assay type: cell-based
# Method in brief: as §1
# [2] = tested on: RT112/84 cells (FGFR3-fusion); assay: RT112/84 cancer cell line cell viability assay (CellTiter-Glo 2.0); assay type: cell-based; details: Homo sapiens, 72 hours, Cell Titer Glo 2.0
# Method in brief: (§2)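 RT112/84, UM-UC-14 and KG-1 cells (10,000/well, RPMI1640 with 10% FBS) were treated with a 9-dose, 10-fold series starting at 30 μM, in triplicate, for 72 h at 37 °C. ATP was read by CellTiter-Glo 2.0 luminescence relative to DMSO controls, and IC50 was fitted with a 4-parameter sigmoidal model.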
# [3] = tested on: UM-UC-14 cells (FGFR3(S249C)); assay: UM-UC-14 cancer cell line cell viability assay (CellTiter-Glo 2.0); assay type: cell-based; details: UMUC14, 72 hours, Cell Titer Glo 2.0
# Description: Experimental Purpose: To detect the change of intracellular ATP by Cell Titer-Glo® and to evaluate the inhibitory effect of the compounds on cancer cell lines by determining the in vitro IC50 value of the compounds.
# Cell Titer-Glo® 2.0 Luminescent cell viability assay reagent was purchased from Promega (Madison, WI). RT112/84 and KG-1 cell lines were purchased from American Type Culture Collection (Manassas, VA). UM-UC-14 cell line was purchased from Sigma (St. Louis, MO). RT112/84, UM-UC-14, and KG-1 cells were cultured in RPMI1640 media supplemented with 10% fetal bovine serum. Cultures were maintained at 37° C. in a humidified atmosphere of 5% C02 and 95% air.
# Cell Viability Assay Procedure: Cells were plated in 96-well clear bottom/white plates (Corning #3903) at 10,000 cells/well in 100 μl of media, incubated overnight. The next day, test compound DMSO stock solutions were made at 10 mM and 2 μM final concentration. Compounds were then added to cells in a 9-dose, 10-fold dilution series starting at 30 μM with an HP 300e Digital Dispenser (each dose was applied in triplicate). DMSO was backfilled to each well up to 301 nL total volume of test compound+DMSO, and a total of 301 nL DMSO was added to a control/no test compound well in triplicate. The cells in cell culture plates were incubated with the compounds at 37° C. and 5% C02 for 72 hours. Then 50 μl of Cell Titer Glo 2.0 reagent was added to each well of the cell culture plates. The contents were covered from light and mixed on an orbital shaker at room temperature for 10 min. Luminescence was recorded by a Synergy H1 Microplate Reader (Biotek, Winooski, VT). Cells were assessed as a percentage of DMSO only treated control cells. Curves were plotted and IC50 values were calculated using the GraphPad Prism 8 program based on a sigmoidal dose-response equation (4 parameter).
# [4] = tested on: KG-1 cells (FGFR1-fusion); assay: KG-1 cancer cell line cell viability assay (CellTiter-Glo 2.0); assay type: cell-based; details: Homo sapiens, 72 hours, Cell Titer Glo 2.0
# Method in brief: as §2
# FGFR1 = FGFR1 (Homo sapiens (Human), UniProt P11362); assay: Kinase assay, binding constants (Kd), kinase-tagged T7 phage, qPCR
# Method in brief: (§3)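 Competition binding: T7 phage-tagged kinase + biotin-ligand beads + compound (11 pts, 3-fold, 0.9% DMSO). Elution 30 min RT with free ligand; qPCR quantitation. Kd via Hill fit, slope −1.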
# FGFR2 = FGFR2 (Homo sapiens (Human), UniProt P21802); assay: as above
# Method in brief: as §3
# FGFR3 = FGFR3 (Homo sapiens (Human), UniProt P22607); assay: as above
# Method in brief: as §3
# FGFR3 (V555M) = FGFR3 (V555M) (Homo sapiens (Human), UniProt P22607, V555M); assay: as above; details: V555M mutant
# Method in brief: as §3
# FGFR4 = FGFR4 (Homo sapiens (Human), UniProt P22455); assay: as above
# Method in brief: as §3
# [5] = FGFR3 > FGFR1 selectivity ratio in Ba/F3 FGFR fusion cell based assays
# [6] = read-out: Ba/F3 Cells FGFR3 (IC50 nM); FGFR3-BAIAP2L1 Ba/F3 cells, 48 hours, Cell Titer Glo 2.0
# [7] = read-out: Ba/F3 Cells FGFR1 (IC50 nM), 48 hours, Cell Titer Glo 2.0
# [8] = FGFR3-BAIAP2L1 Ba/F3 cells, 48 hours, Cell Titer Glo 2.0; read-out: Ba/F3 Cells FGFR3 (IC50 nM)
# [9] = 48 hours, Cell Titer Glo 2.0, read-out: Ba/F3 Cells FGFR1 (IC50 nM)
# Chain of FGFR3-BAIAP2L1 Ba/F3 cells (P22607 23-806 limits assumed, change not shown): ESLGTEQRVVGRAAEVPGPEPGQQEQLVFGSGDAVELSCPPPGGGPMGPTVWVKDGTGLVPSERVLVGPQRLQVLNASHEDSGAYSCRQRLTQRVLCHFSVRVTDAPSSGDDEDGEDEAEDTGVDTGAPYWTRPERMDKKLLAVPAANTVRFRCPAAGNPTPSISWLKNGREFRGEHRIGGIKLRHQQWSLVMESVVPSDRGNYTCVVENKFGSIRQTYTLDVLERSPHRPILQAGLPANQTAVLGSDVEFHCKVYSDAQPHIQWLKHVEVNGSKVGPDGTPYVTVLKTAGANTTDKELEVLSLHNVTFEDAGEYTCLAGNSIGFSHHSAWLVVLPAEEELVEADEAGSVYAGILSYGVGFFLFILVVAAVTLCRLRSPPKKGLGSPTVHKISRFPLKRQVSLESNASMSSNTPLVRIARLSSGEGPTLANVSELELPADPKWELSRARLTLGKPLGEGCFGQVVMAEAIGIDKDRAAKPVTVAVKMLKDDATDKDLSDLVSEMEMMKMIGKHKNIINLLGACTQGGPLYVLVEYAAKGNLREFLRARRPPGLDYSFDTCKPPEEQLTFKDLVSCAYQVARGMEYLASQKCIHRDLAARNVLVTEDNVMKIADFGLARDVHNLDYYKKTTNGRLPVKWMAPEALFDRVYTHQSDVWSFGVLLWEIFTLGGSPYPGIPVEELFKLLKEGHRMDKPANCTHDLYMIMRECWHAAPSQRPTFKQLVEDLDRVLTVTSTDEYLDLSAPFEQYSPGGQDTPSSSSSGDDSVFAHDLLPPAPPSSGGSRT
# Chain of FGFR3 (P22607 23-806): as the sequence (P22607 23-806 limits assumed, change not shown) above
# Chain of FGFR1-BCR Ba/F3 cells (P11362 22-822 limits assumed, change not shown): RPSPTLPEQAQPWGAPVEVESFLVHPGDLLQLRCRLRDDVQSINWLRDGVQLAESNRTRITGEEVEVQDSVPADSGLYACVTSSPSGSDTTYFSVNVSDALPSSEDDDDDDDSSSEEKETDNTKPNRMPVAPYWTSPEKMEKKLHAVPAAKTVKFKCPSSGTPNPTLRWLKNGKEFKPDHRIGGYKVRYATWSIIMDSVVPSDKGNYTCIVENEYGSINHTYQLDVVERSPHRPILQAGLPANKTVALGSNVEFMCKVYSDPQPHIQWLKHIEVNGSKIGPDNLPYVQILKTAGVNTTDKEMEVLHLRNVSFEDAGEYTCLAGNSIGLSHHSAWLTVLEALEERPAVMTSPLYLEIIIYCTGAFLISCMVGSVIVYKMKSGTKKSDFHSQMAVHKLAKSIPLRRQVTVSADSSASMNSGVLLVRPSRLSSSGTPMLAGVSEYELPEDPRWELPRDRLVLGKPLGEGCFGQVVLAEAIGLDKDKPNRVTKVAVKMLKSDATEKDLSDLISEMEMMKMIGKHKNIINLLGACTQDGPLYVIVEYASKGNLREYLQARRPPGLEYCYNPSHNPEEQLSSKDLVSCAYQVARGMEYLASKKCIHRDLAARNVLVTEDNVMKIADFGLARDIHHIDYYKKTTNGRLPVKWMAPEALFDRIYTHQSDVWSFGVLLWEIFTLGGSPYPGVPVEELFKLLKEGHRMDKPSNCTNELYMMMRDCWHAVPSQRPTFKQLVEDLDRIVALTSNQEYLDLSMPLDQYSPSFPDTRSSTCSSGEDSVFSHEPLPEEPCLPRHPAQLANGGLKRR
# Chain of FGFR1 (P11362 22-822): as the sequence (P11362 22-822 limits assumed, change not shown) above
# Chain of FGFR2 (P21802 22-821): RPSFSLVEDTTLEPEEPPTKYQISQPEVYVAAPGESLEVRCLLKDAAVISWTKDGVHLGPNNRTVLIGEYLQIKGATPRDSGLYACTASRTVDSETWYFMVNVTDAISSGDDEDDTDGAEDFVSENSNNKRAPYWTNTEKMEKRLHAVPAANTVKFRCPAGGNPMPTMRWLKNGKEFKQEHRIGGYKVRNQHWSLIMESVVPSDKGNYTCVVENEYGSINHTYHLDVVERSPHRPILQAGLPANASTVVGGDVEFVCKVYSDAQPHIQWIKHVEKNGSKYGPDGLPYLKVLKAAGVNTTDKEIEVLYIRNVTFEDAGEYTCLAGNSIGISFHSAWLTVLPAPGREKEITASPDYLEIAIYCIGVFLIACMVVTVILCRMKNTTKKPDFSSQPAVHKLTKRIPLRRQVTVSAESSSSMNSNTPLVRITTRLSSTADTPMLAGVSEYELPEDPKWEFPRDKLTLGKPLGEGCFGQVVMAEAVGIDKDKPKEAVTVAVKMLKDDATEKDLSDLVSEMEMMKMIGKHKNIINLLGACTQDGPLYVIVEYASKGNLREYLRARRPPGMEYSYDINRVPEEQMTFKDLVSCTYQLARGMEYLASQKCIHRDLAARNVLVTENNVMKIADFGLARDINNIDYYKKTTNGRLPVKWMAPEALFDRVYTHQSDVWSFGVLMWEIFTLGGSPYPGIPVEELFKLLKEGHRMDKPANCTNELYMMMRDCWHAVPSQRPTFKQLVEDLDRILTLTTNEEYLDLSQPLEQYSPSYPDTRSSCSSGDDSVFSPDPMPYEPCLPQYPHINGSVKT
# Chain of FGFR3 (V555M) (P22607 23-806 V555M): as the sequence (P22607 23-806 limits assumed, change not shown) above, with V533M counted along it
# Chain of FGFR4 (P22455 22-802): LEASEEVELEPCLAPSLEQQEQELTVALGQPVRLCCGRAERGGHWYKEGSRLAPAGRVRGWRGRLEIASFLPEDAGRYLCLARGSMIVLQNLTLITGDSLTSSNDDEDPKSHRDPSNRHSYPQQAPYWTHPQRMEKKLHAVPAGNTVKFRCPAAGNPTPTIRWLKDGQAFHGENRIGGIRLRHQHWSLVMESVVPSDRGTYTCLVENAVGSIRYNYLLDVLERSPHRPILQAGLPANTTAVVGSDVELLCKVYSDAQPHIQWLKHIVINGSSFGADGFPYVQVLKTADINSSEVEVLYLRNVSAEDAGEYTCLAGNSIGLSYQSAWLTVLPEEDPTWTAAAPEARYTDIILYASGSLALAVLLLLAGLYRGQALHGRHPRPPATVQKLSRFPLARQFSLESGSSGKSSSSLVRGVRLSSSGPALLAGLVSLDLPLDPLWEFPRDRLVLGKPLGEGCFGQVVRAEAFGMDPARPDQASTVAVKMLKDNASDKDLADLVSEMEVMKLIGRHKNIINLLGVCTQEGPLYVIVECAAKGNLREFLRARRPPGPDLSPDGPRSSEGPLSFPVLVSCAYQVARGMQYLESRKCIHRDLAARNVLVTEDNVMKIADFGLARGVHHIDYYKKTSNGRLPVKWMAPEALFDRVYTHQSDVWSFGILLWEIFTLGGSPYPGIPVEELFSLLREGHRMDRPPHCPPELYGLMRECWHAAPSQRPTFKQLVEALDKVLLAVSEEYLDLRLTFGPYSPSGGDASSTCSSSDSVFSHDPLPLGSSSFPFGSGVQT
SMILES,"Ba/F3 FGFR1/FGFR3 Selectivity [1, 5]","IC50 [1, 6] [nM]",IC50 (FGFR1-BCR Ba/F3 cells; [7]) [nM],IC50 [2] [nM],IC50 [3] [nM],IC50 [4] [nM],Kd (FGFR1) [nM],Kd (FGFR2) [nM],Kd (FGFR3) [nM],Kd (FGFR3 (V555M)) [nM],Kd (FGFR4) [nM],"IC50 [1, 8] [nM]",IC50 (FGFR1-BCR Ba/F3 cells; [9]) [nM]
"C[C@@H](Oc1ccc2[nH]nc(-c3cnc(N4CCN(C(=O)N5CCN(C)CC5)CC4)nc3)c2c1)c1c(Cl)cncc1Cl [Example 15, [4-[5-[5-[(1R)-1-(3,5-dichloro-4-pyridyl)ethoxy]-1H-indazol-3-yl]pyrimidin-2-yl]piperazin-1-yl]-(4-methylpiperazin-1-yl)methanone]",10,20 to 100,> 300,1 to 20,1 to 20,20 to 100,1 to 20,1 to 20,1 to 20,1 to 20,1 to 20,,
"C[C@@H](Oc1ccc2[nH]nc(-c3ccc(N4CC5CC(C4)N5)nc3)c2c1)c1c(Cl)cncc1Cl [Example 16, 3-[6-(3,6-Diazabicyclo[3.1.1]heptan-3-yl)-3-pyridyl]-5-[(1R)-1-(3,5-dichloro-4-pyridyl)ethoxy]-1H-indazole]",14,,,1 to 20,1 to 20,20 to 100,1 to 20,1 to 20,1 to 20,1 to 20,1 to 20,20 to 100,> 300
"C[C@@H](Oc1ccc2[nH]nc(-c3cnc(N4CCN(C(=O)N(C)C)CC4)nc3)c2c1)c1c(Cl)cncc1Cl [Example 19, 4-[5-[5-[(1R)-1-(3,5-Dichloro-4-pyridyl)ethoxy]-1H-indazol-3-yl]pyrimidin-2-yl]-N,N-dimethyl-piperazine-1-carboxamide]",15,1 to 20,100 to 300,1 to 20,1 to 20,100 to 300,1 to 20,100 to 300,1 to 20,1 to 20,1 to 20,,
"C[C@@H](Oc1ccc2[nH]nc(-c3ccc(N4CC5CC(C4)N5S(C)(=O)=O)nc3)c2c1)c1c(Cl)cncc1Cl [Example 20, 5-[(1R)-1-(3,5-dichloro-4-pyridyl)ethoxy]-3-[6-(6-methylsulfonyl-3,6-diazabicyclo[3.1.1]heptan-3-yl)-3-pyridyl]-1H-indazole]",15,,,20 to 100,20 to 100,100 to 300,20 to 100,20 to 100,1 to 20,1 to 20,1 to 20,20 to 100,> 300
"C[C@@H](Oc1ccc2[nH]nc(-c3ccc(N4CCNC5(CC5)C4)nc3)c2c1)c1c(Cl)cncc1Cl [Example 21, 3-[6-(4,7-diazaspiro[2.5]octan-7-yl)-3-pyridyl]-5-[(1R)-1-(3,5-dichloro-4-pyridyl)ethoxy]-1H-indazole]",13,1 to 20,100 to 300,1 to 20,1 to 20,20 to 100,1 to 20,1 to 20,1 to 20,1 to 20,1 to 20,,
"C[C@@H](Oc1ccc2[nH]nc(-c3ccc(N4CCN(S(C)(=O)=O)C5(CC5)C4)nc3)c2c1)c1c(Cl)cncc1Cl [Example 22, 5-[(1R)-1-(3,5-dichloro-4-pyridyl)ethoxy]-3-[6-(4-methylsulfonyl-4,7-diazaspiro[2.5]octan-7-yl)-3-pyridyl]-1H-indazole]",11,1 to 20,100 to 300,1 to 20,1 to 20,20 to 100,20 to 100,20 to 100,1 to 20,1 to 20,1 to 20,,
"C[C@@H](Oc1ccc2[nH]nc(-c3ccc(N4CCN(C(=O)N(C)C)C5(CC5)C4)nc3)c2c1)c1c(Cl)cncc1Cl [Example 23, (R)-7-(5-(5-(1-(3,5-dichloropyridin-4-yl)ethoxy)-1H-indazol-3-yl)pyridin-2-yl)-N,N-dimethyl-4,7-diazaspiro[2.5]octane-4-carboxamide]",16,1 to 20,100 to 300,1 to 20,1 to 20,100 to 300,> 300,> 300,100 to 300,20 to 100,> 300,,
"C[C@@H](Oc1ccc2[nH]nc(-c3ccc(N4CCN(C(N)=O)C5(CC5)C4)nc3)c2c1)c1c(Cl)cncc1Cl [Example 24, 7-[5-[5-[(1R)-1-(3,5-dichloro-4-pyridyl)ethoxy]-1H-indazol-3-yl]-2-pyridyl]-4,7-diazaspiro[2.5]octane-4-carboxamide]",18,1 to 20,20 to 100,1 to 20,1 to 20,20 to 100,1 to 20,1 to 20,1 to 20,1 to 20,1 to 20,,
"C[C@@H](Oc1ccc2[nH]nc(-c3ccc(N4CCC5(CCCO5)CC4)nc3)c2c1)c1c(Cl)cncc1Cl [Example 26, 8-[5-[5-[(1R)-1-(3,5-dichloro-4-pyridyl)ethoxy]-1H-indazol-3-yl]-2-pyridyl]-1-oxa-8-azaspiro[4.5]decane]",28,20 to 100,> 300,20 to 100,20 to 100,> 300,20 to 100,20 to 100,1 to 20,1 to 20,1 to 20,,
"C[C@@H](Oc1ccc2[nH]nc(-c3ccc(N4CCC5(CCNC5=O)CC4)nc3)c2c1)c1c(Cl)cncc1Cl [Example 27, 8-[5-[5-[(1R)-1-(3,5-dichloro-4-pyridyl)ethoxy]-1H-indazol-3-yl]-2-pyridyl]-2,8-diazaspiro[4.5]decan-1-one]",24,1 to 20,100 to 300,1 to 20,1 to 20,100 to 300,20 to 100,1 to 20,1 to 20,1 to 20,1 to 20,,
"C[C@@H](Oc1ccc2[nH]nc(-c3ccc(N4CCC5(CCOC5)CC4)nc3)c2c1)c1c(Cl)cncc1Cl [Example 28, 8-[5-[5-[(1R)-1-(3,5-dichloro-4-pyridyl)ethoxy]-1H-indazol-3-yl]-2-pyridyl]-2-oxa-8-azaspiro[4.5]decane]",22,1 to 20,> 300,1 to 20,1 to 20,100 to 300,20 to 100,20 to 100,1 to 20,1 to 20,1 to 20,,
"C[C@@H](Oc1ccc2[nH]nc(-c3ccc(N4CCC5(CCN(C)C5)CC4)nc3)c2c1)c1c(Cl)cncc1Cl [Example 32, 8-[5-[5-[(1R)-1-(3,5-dichloro-4-pyridyl)ethoxy]-1H-indazol-3-yl]-2-pyridyl]-2-methyl-2,8-diazaspiro[4.5]decane]",12,1 to 20,100 to 300,1 to 20,1 to 20,20 to 100,1 to 20,1 to 20,1 to 20,1 to 20,1 to 20,,
